Data taken from US10645929B2, “Pyrimidine compound” (Sumitomo Chemical Company, Limited, priority 2015, dated 2020).

Tested on: cucurbit leaf beetle (Aulacophora femoralis)
Test: Test Example 10: sprayed cucumber leaves, cucurbit leaf beetle
Type: in vivo
Conditions: 50 ppm, spray 10 mL/seedling, 2nd instar larvae, after 5 days
Procedure: Next, Test examples are used to show efficacies of the Present compounds on controlling harmful arthropods. In the following Test examples, the tests were carried out at 25° C.
Each test compound is dissolved into a mixed solution (10 μL) of xylene, DMF, and a surfactant (at a volume ratio of xylene:DMF:surfactant=4:4:1) per 1 mg of the test compound, and water containing a spreader (0.03% by volume) is added thereto to prepare a diluted solution containing a prescribed concentration of each test compound.
Cucumber seedlings (on the developmental stage of the second to third true leaf) are planted in a plastic cup, and each of the diluted solutions is sprayed into the seedlings in the ratio of 10 mL/seedling. Thereafter, the second leaves are cut out and placed into a plastic cup, and 10 heads of the 2nd instar larvae of cucurbit leaf beetle (Aulacophora femoralis) are released into the cup, and the cup is covered with a lid. After 5 days, the number of the dead insects is counted, and the mortality of insects is calculated by the following equation. Mortality (%)=(Number of dead insects/10)×100

## CCS(=O)(=O)c1cc(C(F)(F)F)ccc1-c1ncc(OCC(F)(F)C(F)C(F)(F)F)cn1 (racemic) [compound 2]
  mortality: ≥ 80%
